Measurements as given in patent publication US5968952A, “Farnesyl transferase inhibiting 2-quinolone derivatives” (Janssen Pharmaceutica, N.V., priority 1995, dated 1999).

The molecules below were run on NIH 3T3 cells transformed by the T24 activated human H-ras gene (assay: Ras-Transformed Cell Phenotype Reversion Assay). Details: NIH3T3; Table 8; T24 H-ras transformed NIH 3T3 cells; 72 hours; cell counts.
Assay type: cell-based, mouse
Source text: "Ras-Transformed Cell Phenotype Reversion Assay" Insertion of activated oncogenes such as the mutant ras gene into mouse NIH 3T3 cells converts the cells to a transformed phenotype. The cells become tumorigenic, display anchorage independent growth in semi-solid medium and lose contact inhibition. Loss of contact inhibition produces cell cultures which no longer form uniform monolayers. Rather, the cells pile up into multicellular nodules and grow to very high saturation densities in plastic tissue culture dishes. Agents such as protein farnesyl transferase inhibitors which revert the ras transformed phenotype restore the uniform monolayer growth pattern to cells in culture. This reversion is easily monitored by counting the number of cells in tissue culture plates. Transformed cells will achieve higher cell numbers than cells which have reverted to an untransformed phenotype. Compounds which revert the transformed phenotype should produce antitumor effects in tumors bearing ras gene mutations. Method Compounds are screened in tissue culture in NIH 3T3 cells transformed by the T24 activated human H-ras gene. Cells are seeded at an initial density of 200,000 cells per well (9.6 cm^2 surface area) in six-well cluster tissue culture plates. Test compounds are immediately added to 3.0 ml cell growth mediuim in a 3.0 μl volume of DMSO, with a final concentration of DMSO in the cell growth medium of 0.1%. […] Then the cells are detached in 1.0 ml trypsin-EDTA cell dissociation medium and counted on a Coulter particle counter. Measurements Cell numbers expressed as cells per well are measured using a Coulter Particle Counter. All cell counts were corrected for the initial cell input density by subtracting 200,000. Control cell counts=[cell counts from cells incubated with DMSO vehicle--200,000] Test compound cell counts=[cell counts from cells incubated with test compound--200,000]. [formula]

Structure (SMILES)	IC50
CCCOc1cccc(-c2cc(=O)n(C)c3ccc(C(c4ccc(Cl)cc4)n4ccnc4)cc23)c1 (racemic) [Compound 74, (±)-6-[(4-chlorophenyl)-1H-imidazol-1-ylmethyl]-1-methyl-4-(3-propoxyphenyl)-2(1H)-quinolinone ethanedioate (2:3).sesquihydrate]	500 nM
COCC(c1ccc(Cl)cc1)(c1ccc2c(c1)c(-c1cccc(Cl)c1)cc(=O)n2C)n1ccnc1 (centres unmarked) [Compound 67]	114 nM
CSCC(c1ccc(Cl)cc1)(c1ccc2c(c1)c(-c1cccc(Cl)c1)cc(=O)n2C)n1ccnc1 (centres unmarked) [Compound 69]	500 nM
CN(C)CCn1c(=O)cc(-c2cccc(Cl)c2)c2cc(C(c3ccc(Cl)cc3)n3ccnc3)ccc21 (centres unmarked) [Compound 80]	169 nM

The molecules below were run against T1, Human farnesyl protein transferase (Homo sapiens, UniProt P49354+P49356) (assay: In Vitro Assay for Inhibition of Farnesyl Protein Transferase ([3H] Scintillation Proximity Assay)). Details: Table 7; human enzyme from KHOS cells; biotinylated lamin B peptide substrate; 60 min, 37° C.; read-out: IC50 (concentration of test compound producing 50% inhibition of enzyme activity).
T1 construct: were used as a source of human enzyme; endogenous in cells; host or cells: Kirsten virus transformed human osteosarcoma (KHOS) cells (ATCC), grown as monolayers or as solid tumors in nude mice; ammonium sulfate fraction and Q Sepharose pool
Assay type: biochemical
Procedure: In Vitro Assay for Inhibition of Farnesyl Protein Transferase Human farnesyl protein transferase was prepared essentially as described ([…] al., Methods: A Companion to Methods in Enzymology vol 1, 241-245, 1990). Kirsten virus transformed human osteosarcoma (KHOS) cells (American Type Culture Collection, Rockvill, Md., USA) grown as solid tumors in nude mice or grown as monolayer cell cultures were used as a source of human enzyme. Briefly, cells or tumors were homogenized in buffer containing 50 mM Tris, 1 mM EDTA, 1 mM EGTA and 0.2 mM phenylmethylsulfonylfluoride (pH 7.5). The homogenates were centrifuged 28,000× g for 60 min and the supernatants collected. A 30-50% ammonium sulfate […] prepared, and the resulting precipitate was resuspended in a small (10 to 20 ml) volume of dialysis buffer containing 20 mM Tris, 1 mM dithiothreitol and 20 μM ZnCl2. The ammonium sulfate fraction was dialyzed overnight against two changes of the same buffer. The dialyzed material was applied to a 10×1 cm Q Fast Flow Sepharose (Pharmacia LKB Biotechnology Inc., Piscataway, N.J., USA) which had been preequilibrated with 100 ml of dialysis buffer supplemented with 0.05M NaCl. The column was washed with an additional 50 ml of dialysis buffer plus 0.05M NaCl followed by a gradient from 0.05M to 0.25M NaCl prepared in dialysis buffer. The enzyme activity was eluted with a linear gradient of 0.25 to 1.0M NaCl prepared in the dialysis buffer. Fractions containing 4 to 5 ml volumes of column eluate were collected and analyzed for farnesyl protein transferase activity. Fractions with enzyme activity were pooled and supplemented with 100 μM ZnCl2. Enzyme samples were stored frozen at -70° C. The activity of farnesyl protein transferase was measured using the Farnesyl Transferase [^3 H] Scintillation Proximity Assay (Amersham International plc., England) under the conditions specified by the manufacturer. […] The reaction mixture was warmed to 37° C. The enzyme reaction was started by adding 20 μl of diluted human farnesyl protein transferase. […] Reactions were terminated by the addition of STOP/scintillation proximity bead reagent (Amersham). The reaction product [^3 H]-farnesyl-(Cys)-biotin lamin B peptide was captured on the streptavidin linked scintillation proximity bead. The amount of [^3 H]-farnesyl-(Cys)-biotin lamin B peptide synthesized in the presence or absence of test compounds was quantified as cpm by counting on a Wallac Model 1480 Microbeta Liquid Scintillation Counter. The cpm of product was considered to be farnesyl protein transferase activity. The protein farnesyl transferase activity observed in the presence of test compound was normalized to farnesyl transferase activity in the presence of 10% DMSO and expressed as per cent inhibition. […] W. Johnson Pharmaceutical Research Institue (Spring House, Pa., USA) on a VAX computer.

Structure (SMILES)	IC50
O=c1cc(-c2ccccc2)c2cc(C(c3ccccc3)n3ccnc3)ccc2[nH]1 (racemic) [Compound 1, (±)-6-[(1H-imidazol-1-yl)phenylmethyl]-4-phenyl-2(1H)-quinolinone]	930 nM
Cn1c(=O)cc(-c2ccccc2)c2cc(C(c3ccc(Cl)cc3)n3ccnc3)ccc21 (racemic) [Compound 8, (±)-6-[(4-chlorophenyl)-1H-imidazol-1-yl-methyl]-1-methyl-4-phenyl-2(1H)-quinolinone]	70 nM
COC(=O)C(CC(C)C)NC(=O)Cn1c(=O)cc(-c2ccccc2)c2cc(C(c3ccc(Cl)cc3)n3ccnc3)ccc21 (racemic) [Compound 39]	47 nM
O=C1CC(c2ccccc2)c2cc(C(c3ccc(Cl)cc3)n3ccnc3)ccc2N1 (racemic) [Compound 57, (±)-6-[(4-chlorophenyl)-1H-imidazol-1-ylmethyl]-3,4-dihydro-4-phenyl-2(1H)-quinolinone]	1200 nM
Cn1c(=O)cc(-c2ccccc2)c2cc(C(CO)(c3ccc(Cl)cc3)n3ccnc3)ccc21 (racemic) [Compound 59, (±)-6-[1-(4-chlorophenyl)-2-hydroxy-1-(1H-imidazol-1-yl)ethyl]-1-methyl-4-phenyl-2(1H)-quinolinone monohydrate]	13 nM
Cn1c(=O)cc(-c2cccc(Cl)c2)c2cc(C(C)(c3ccc(Cl)cc3)n3ccnc3)ccc21 (racemic) [Compound 62, (±)-4-(3-chlorophenyl)-6-[1-(4-chlorophenyl)-1-(1H-imidazol-1-yl)ethyl]-1-methyl-2(1H)-quinolinone]	22 nM
Oc1cc(-c2ccccc2)c2cc(C(c3ccc(Cl)cc3)n3ccnc3)ccc2n1 (single isomer, unassigned; (-)) [Compound 7, (-)-(B)-6-[(4-chlorophenyl)-1H-imidazol-1-ylmethyl]-4-phenyl-2(1H)-quinolinone]	110 nM
O=c1cc(-c2ccccc2)c2cc(C(c3ccc(Cl)cc3)n3ccnc3)ccc2[nH]1 (centres unmarked) [Compound 2]	180 nM
O=c1cc(-c2ccccc2)c2cc(C(c3cccc(Cl)c3)n3ccnc3)ccc2[nH]1 (centres unmarked) [Compound 3]	1400 nM
O=c1cc(-c2ccccc2)c2cc(C(c3ccc(F)cc3)n3ccnc3)ccc2[nH]1 (centres unmarked) [Compound 4]	315 nM
O=c1cc(-c2ccccc2)c2cc(C(c3ccc(Cl)cc3)n3ccnc3)ccc2n1Cc1ccccc1 (centres unmarked) [Compound 10]	220 nM
O=c1cc(-c2ccc(Cl)cc2)c2cc(C(c3ccc(Cl)cc3)n3ccnc3)ccc2[nH]1 (centres unmarked) [Compound 11]	320 nM
O=c1cc(-c2ccccc2Cl)c2cc(C(c3ccc(Cl)cc3)n3ccnc3)ccc2[nH]1 (centres unmarked) [Compound 12]	3200 nM
O=c1cc(-c2cccc(Cl)c2)c2cc(C(c3ccc(Cl)cc3)n3ccnc3)ccc2[nH]1 (centres unmarked) [Compound 13, 4-(3-chlorophenyl)-6-[(4-chlorophenyl)-1H-imidazol-1-ylmethyl]-2(1H)-quinolinone]	34 nM
CCCn1c(=O)cc(-c2ccccc2)c2cc(C(c3ccc(Cl)cc3)n3ccnc3)ccc21 (centres unmarked) [Compound 14]	700 nM
Cn1c(=O)cc(-c2cccc(Cl)c2)c2cc(C(c3ccc(Cl)cc3)n3ccnc3)ccc21 (centres unmarked) [Compound 15, 4-(3-chlorophenyl)-6-[(4-chlorophenyl)-1H-imidazol-1-ylmethyl]-1-methyl-2(1H)-quinolinone]	16 nM
CCOC(=O)Cn1c(=O)cc(-c2ccccc2)c2cc(C(c3ccc(Cl)cc3)n3ccnc3)ccc21 (centres unmarked) [Compound 17]	230 nM
Cc1cccc(-c2cc(=O)[nH]c3ccc(C(c4ccc(Cl)cc4)n4ccnc4)cc23)c1 (centres unmarked) [Compound 18]	40 nM
O=c1cc(-c2cccc(C(F)(F)F)c2)c2cc(C(c3ccc(Cl)cc3)n3ccnc3)ccc2[nH]1 (centres unmarked) [Compound 20]	240 nM

Structure (SMILES)	IC50
O=c1cc(-c2cccc(F)c2)c2cc(C(c3ccc(Cl)cc3)n3ccnc3)ccc2[nH]1 (centres unmarked) [Compound 21]	150 nM
COc1cccc(-c2cc(=O)[nH]c3ccc(C(c4ccc(Cl)cc4)n4ccnc4)cc23)c1 (centres unmarked) [Compound 24]	32 nM
Cc1ccc(C(c2ccc3[nH]c(=O)cc(-c4ccccc4)c3c2)n2ccnc2)cc1 (centres unmarked) [Compound 25]	262 nM
O=c1cc(-c2ccc(Cl)c(Cl)c2)c2cc(C(c3ccc(Cl)cc3)n3ccnc3)ccc2[nH]1 (centres unmarked) [Compound 26]	227 nM
Cc1ccc(-c2cc(=O)[nH]c3ccc(C(c4ccc(Cl)cc4)n4ccnc4)cc23)cc1 (centres unmarked) [Compound 27]	193 nM
Cc1ccccc1-c1cc(=O)[nH]c2ccc(C(c3ccc(Cl)cc3)n3ccnc3)cc12 (centres unmarked) [Compound 28]	2200 nM
COc1ccc(CCn2c(=O)cc(-c3ccccc3)c3cc(C(c4ccc(Cl)cc4)n4ccnc4)ccc32)cc1 (centres unmarked) [Compound 29]	2400 nM
O=c1cc(-c2cccc(Br)c2)c2cc(C(c3ccc(Cl)cc3)n3ccnc3)ccc2[nH]1 (centres unmarked) [Compound 30]	21 nM
O=c1cc(-c2ccccc2)c2cc(C(c3ccc(Cl)cc3Cl)n3ccnc3)ccc2[nH]1 (centres unmarked) [Compound 31]	480 nM
O=c1cc(-c2ccccc2)c2cc(C(c3ccccc3Cl)n3ccnc3)ccc2[nH]1 (centres unmarked) [Compound 32]	530 nM
COc1ccc(C(c2ccc3[nH]c(=O)cc(-c4ccccc4)c3c2)n2ccnc2)cc1 (centres unmarked) [Compound 33]	850 nM
O=c1cc(-c2ccccc2)c2cc(C(c3ccc(Cl)c(Cl)c3)n3ccnc3)ccc2[nH]1 (centres unmarked) [Compound 34]	600 nM
O=c1cc(-c2cc(Cl)cc(Cl)c2)c2cc(C(c3ccc(Cl)cc3)n3ccnc3)ccc2[nH]1 (centres unmarked) [Compound 37]	96 nM
O=c1cc(-c2ccccc2)c2cc(C(c3ccc(Cl)cc3)n3cnc(-c4ccccc4)c3)ccc2[nH]1 (centres unmarked) [Compound 47]	105 nM
Cc1cncn1C(c1ccc(Cl)cc1)c1ccc2[nH]c(=O)cc(-c3ccccc3)c2c1 (centres unmarked) [Compound 49]	300 nM
Cc1cncn1C(c1ccc(Cl)cc1)c1ccc2[nH]c(=O)cc(-c3cccc(Cl)c3)c2c1 (centres unmarked) [Compound 53]	32 nM
CC(c1ccc(Cl)cc1)(c1ccc2[nH]c(=O)cc(-c3ccccc3)c2c1)n1ccnc1 (centres unmarked) [Compound 58]	270 nM
CCCC(c1ccc(Cl)cc1)(c1ccc2c(c1)c(-c1cccc(Cl)c1)cc(=O)n2C)n1ccnc1 (centres unmarked) [Compound 65]	51 nM
